Measured values as given in ChEMBL document CHEMBL3885881, “DrugMatrix”.

Organism: Rattus norvegicus
Experiment: DrugMatrix - Regimen: Daily Repeat
Format: toxicity, organism-based, Sprague-Dawley
Design: regimen Daily Repeat, gender Male, age 6-8 weeks
Details: in vivo, po, route oral GAVAGE, vehicle 100 % WATER; for BASOPHIL / EOSINOPHIL / ERYTHROCYTE COUNT / HEMATOCRIT / HEMOGLOBIN / LEUKOCYTE COUNT / LYMPHOCYTE / MEAN CORPUSCULAR HEMOGLOBIN / MEAN CORPUSCULAR HEMOGLOBIN CONCENTRATION / MEAN CORPUSCULAR VOLUME / MONOCYTE / NEUTROPHIL / PLATELET COUNT: tissue Blood; for ALANINE AMINOTRANSFERASE / ALBUMIN / ALKALINE PHOSPHATASE / ASPARTATE AMINOTRANSFERASE / BLOOD UREA NITROGEN / CHLORIDE / CHOLESTEROL / CREATINE PHOSPHOKINASE / CREATININE / GLUCOSE / PHOSPHORUS / POTASSIUM / SODIUM / TOTAL BILIRUBIN / TOTAL PROTEIN: tissue Plasma
[1] = 0 mg/kg, 72 h, dose level Control, time 3 day
[2] = 0 mg/kg, 120 h, dose level Control, time 5 day
[3] = 8 mg/kg, 72 h, dose level Low, time 3 day
[4] = 8 mg/kg, 120 h, dose level Low, time 5 day
[5] = 29 mg/kg, 72 h, dose level High, time 3 day
[6] = 29 mg/kg, 120 h, dose level High, time 5 day

SMILES: CCN[C@@H](C)Cc1cccc(C(F)(F)F)c1 [DEXFENFLURAMINE]
- BASOPHIL [1]: 0%
- EOSINOPHIL [1]: 0.5%
- ERYTHROCYTE COUNT [1]: 5.8 x10E6/uL
- HEMATOCRIT [1]: 35.07%
- HEMOGLOBIN [1]: 14.12 G/DL
- LEUKOCYTE COUNT [1]: 13.7 x10E3/uL
- LYMPHOCYTE [1]: 82.33%
- MEAN CORPUSCULAR HEMOGLOBIN [1]: 24.38 pg
- MEAN CORPUSCULAR HEMOGLOBIN CONCENTRATION [1]: 40.28 G/DL
- MEAN CORPUSCULAR VOLUME [1]: 60.52 fL
- MONOCYTE [1]: 2.67%
- NEUTROPHIL [1]: 14.5%
- PLATELET COUNT [1]: 911.5 x10E3/uL
- ALANINE AMINOTRANSFERASE [1]: 36.83 u/L
- ALBUMIN [1]: 3.75 G/DL
- ALKALINE PHOSPHATASE [1]: 399.83 u/L
- ASPARTATE AMINOTRANSFERASE [1]: 66 u/L
- BLOOD UREA NITROGEN [1]: 14.67 mg/dL
- CHLORIDE [1]: 101.67 MEQ/L
- CHOLESTEROL [1]: 66.33 mg/dL
- CREATINE PHOSPHOKINASE [1]: 139.5 u/L
- CREATININE [1]: 0.92 mg/dL
- GLUCOSE [1]: 175 mg/dL
- PHOSPHORUS [1]: 11.42 mg/dL
- POTASSIUM [1]: 7.03 MEQ/L
- SODIUM [1]: 148.5 MEQ/L
- TOTAL BILIRUBIN [1]: 1.13 mg/dL
- TOTAL PROTEIN [1]: 6.87 G/DL
- BASOPHIL [2]: 0%
- EOSINOPHIL [2]: 0.2%
- ERYTHROCYTE COUNT [2]: 6.02 x10E6/uL
- HEMATOCRIT [2]: 36.48%
- HEMOGLOBIN [2]: 14.38 G/DL
- LEUKOCYTE COUNT [2]: 12.34 x10E3/uL
- LYMPHOCYTE [2]: 83%
- MEAN CORPUSCULAR HEMOGLOBIN [2]: 23.92 pg
- MEAN CORPUSCULAR HEMOGLOBIN CONCENTRATION [2]: 39.44 G/DL
- MEAN CORPUSCULAR VOLUME [2]: 60.66 fL
- MONOCYTE [2]: 3%
- NEUTROPHIL [2]: 13.8%
- PLATELET COUNT [2]: 1190.6 x10E3/uL
- ALANINE AMINOTRANSFERASE [2]: 43 u/L
- ALBUMIN [2]: 3.73 G/DL
- ALKALINE PHOSPHATASE [2]: 393 u/L
- ASPARTATE AMINOTRANSFERASE [2]: 62.33 u/L
- BLOOD UREA NITROGEN [2]: 16.33 mg/dL
- CHLORIDE [2]: 101.67 MEQ/L
- CHOLESTEROL [2]: 65.5 mg/dL
- CREATINE PHOSPHOKINASE [2]: 130.67 u/L
- CREATININE [2]: 0.58 mg/dL
- GLUCOSE [2]: 180.67 mg/dL
- PHOSPHORUS [2]: 11.28 mg/dL
- POTASSIUM [2]: 7.05 MEQ/L
- SODIUM [2]: 148.17 MEQ/L
- TOTAL BILIRUBIN [2]: 0.72 mg/dL
- TOTAL PROTEIN [2]: 6.83 G/DL
- BASOPHIL [3]: 0%
- EOSINOPHIL [3]: 0%
- ERYTHROCYTE COUNT [3]: 5.97 x10E6/uL
- HEMATOCRIT [3]: 35.8%
- HEMOGLOBIN [3]: 14.33 G/DL
- LEUKOCYTE COUNT [3]: 8.6 x10E3/uL
- LYMPHOCYTE [3]: 86.33%
- MEAN CORPUSCULAR HEMOGLOBIN [3]: 24.03 pg
- MEAN CORPUSCULAR HEMOGLOBIN CONCENTRATION [3]: 40.07 G/DL
- MEAN CORPUSCULAR VOLUME [3]: 60 fL
- MONOCYTE [3]: 3.67%
- NEUTROPHIL [3]: 10%
- PLATELET COUNT [3]: 1151 x10E3/uL
- ALANINE AMINOTRANSFERASE [3]: 34.67 u/L
- ALBUMIN [3]: 3.8 G/DL
- ALKALINE PHOSPHATASE [3]: 406.67 u/L
- ASPARTATE AMINOTRANSFERASE [3]: 62.67 u/L
- BLOOD UREA NITROGEN [3]: 16 mg/dL
- CHLORIDE [3]: 100.33 MEQ/L
- CHOLESTEROL [3]: 70 mg/dL
- CREATINE PHOSPHOKINASE [3]: 167.33 u/L
- CREATININE [3]: 0.77 mg/dL
- GLUCOSE [3]: 174 mg/dL
- PHOSPHORUS [3]: 11.97 mg/dL
- POTASSIUM [3]: 6.93 MEQ/L
- SODIUM [3]: 148.67 MEQ/L
- TOTAL BILIRUBIN [3]: 0.67 mg/dL
- TOTAL PROTEIN [3]: 6.7 G/DL
- BASOPHIL [4]: 0%
- EOSINOPHIL [4]: 0%
- ERYTHROCYTE COUNT [4]: 6.17 x10E6/uL
- HEMATOCRIT [4]: 36.97%
- HEMOGLOBIN [4]: 14.47 G/DL
- LEUKOCYTE COUNT [4]: 12.77 x10E3/uL
- LYMPHOCYTE [4]: 91.67%
- MEAN CORPUSCULAR HEMOGLOBIN [4]: 23.5 pg
- MEAN CORPUSCULAR HEMOGLOBIN CONCENTRATION [4]: 39.13 G/DL
- MEAN CORPUSCULAR VOLUME [4]: 60 fL
- MONOCYTE [4]: 1.67%
- NEUTROPHIL [4]: 6.67%
- PLATELET COUNT [4]: 1202.33 x10E3/uL
- ALANINE AMINOTRANSFERASE [4]: 37 u/L
- ALBUMIN [4]: 3.83 G/DL
- ALKALINE PHOSPHATASE [4]: 391.67 u/L
- ASPARTATE AMINOTRANSFERASE [4]: 62.67 u/L
- BLOOD UREA NITROGEN [4]: 14 mg/dL
- CHLORIDE [4]: 102.67 MEQ/L
- CHOLESTEROL [4]: 62.67 mg/dL
- CREATINE PHOSPHOKINASE [4]: 107 u/L
- CREATININE [4]: 0.6 mg/dL
- GLUCOSE [4]: 196.67 mg/dL
- PHOSPHORUS [4]: 12.6 mg/dL
- POTASSIUM [4]: 7.37 MEQ/L
- SODIUM [4]: 148.67 MEQ/L
- TOTAL BILIRUBIN [4]: 0.53 mg/dL
- TOTAL PROTEIN [4]: 7 G/DL
- BASOPHIL [5]: 0%
- EOSINOPHIL [5]: 0.33%
- ERYTHROCYTE COUNT [5]: 6.47 x10E6/uL
- HEMATOCRIT [5]: 37.87%
- HEMOGLOBIN [5]: 15.5 G/DL
- LEUKOCYTE COUNT [5]: 12.63 x10E3/uL
- LYMPHOCYTE [5]: 88%
- MEAN CORPUSCULAR HEMOGLOBIN [5]: 24.03 pg
- MEAN CORPUSCULAR HEMOGLOBIN CONCENTRATION [5]: 41 G/DL
- MEAN CORPUSCULAR VOLUME [5]: 58.6 fL
- MONOCYTE [5]: 2%
- NEUTROPHIL [5]: 9.67%
- PLATELET COUNT [5]: 1385.67 x10E3/uL
- ALANINE AMINOTRANSFERASE [5]: 27 u/L
- ALBUMIN [5]: 3.7 G/DL
- ALKALINE PHOSPHATASE [5]: 285.67 u/L
- ASPARTATE AMINOTRANSFERASE [5]: 55.33 u/L
- BLOOD UREA NITROGEN [5]: 13 mg/dL
- CHLORIDE [5]: 102 MEQ/L
- CHOLESTEROL [5]: 63.67 mg/dL
- CREATINE PHOSPHOKINASE [5]: 119.67 u/L
- CREATININE [5]: 0.7 mg/dL
- GLUCOSE [5]: 160 mg/dL
- PHOSPHORUS [5]: 10.57 mg/dL
- POTASSIUM [5]: 6.47 MEQ/L
- SODIUM [5]: 151 MEQ/L
- TOTAL BILIRUBIN [5]: 0.47 mg/dL
- TOTAL PROTEIN [5]: 6.57 G/DL
- BASOPHIL [6]: 0%
- EOSINOPHIL [6]: 0%
- ERYTHROCYTE COUNT [6]: 6.71 x10E6/uL
- HEMATOCRIT [6]: 38.87%
- HEMOGLOBIN [6]: 15.1 G/DL
- LEUKOCYTE COUNT [6]: 11.3 x10E3/uL
- LYMPHOCYTE [6]: 92.67%
- MEAN CORPUSCULAR HEMOGLOBIN [6]: 22.53 pg
- MEAN CORPUSCULAR HEMOGLOBIN CONCENTRATION [6]: 38.9 G/DL
- MEAN CORPUSCULAR VOLUME [6]: 58 fL
- MONOCYTE [6]: 1.67%
- NEUTROPHIL [6]: 5.67%
- PLATELET COUNT [6]: 1314.33 x10E3/uL
- ALANINE AMINOTRANSFERASE [6]: 33.67 u/L
- ALBUMIN [6]: 3.67 G/DL
- ALKALINE PHOSPHATASE [6]: 333.67 u/L
- ASPARTATE AMINOTRANSFERASE [6]: 57.67 u/L
- BLOOD UREA NITROGEN [6]: 15 mg/dL
- CHLORIDE [6]: 101 MEQ/L
- CHOLESTEROL [6]: 66.67 mg/dL
- CREATINE PHOSPHOKINASE [6]: 104.67 u/L
- CREATININE [6]: 0.6 mg/dL
- GLUCOSE [6]: 197.33 mg/dL
- PHOSPHORUS [6]: 12.47 mg/dL
- POTASSIUM [6]: 6.47 MEQ/L
- SODIUM [6]: 149.67 MEQ/L
- TOTAL BILIRUBIN [6]: 0.33 mg/dL
- TOTAL PROTEIN [6]: 6.57 G/DL
